Biological target: T1, Recombinant pure human SQSTM1 protein (Homo sapiens, UniProt Q13501)
T1 construct: purchased Origene
Experiment: Inhibition of IA-Rhodamine labeling of SQSTM1 (gel-based, densitometry)
Type: binding
Settings: 50 μM of test compound (initial screen); 30 min at 37° C., then 100 nM IA-Rhodamine 1 hour; inhibition of target labeling by densitometry
Procedure: Recombinant pure human SQSTM1 protein was purchased from Origene. SQSTM1 protein (0.21 μg) was diluted into 50 μL of PBS and 1 μL of either DMSO (vehicle) or covalently acting small molecule (test compound) to achieve the desired concentration. After 30 min. at 37° C., the samples were treated with 100 nM IA-Rhodamine (tetramethylrhodamine-5-iodoacetamide dihydroiodide; Setareh Biotech, 6222, prepared in anhydrous DMSO) for 1 hour at room temperature. Samples were then diluted with 20 μL of 4× reducing Laemmli SDS sample loading buffer (Alfa Aesar) and heated at 90° C. for 5 min. The samples were separated on precast 4-20% Criterion TGX gels (Bio-Rad Laboratories, Inc.). Fluorescent imaging was performed on a ChemiDoc MP instrument (Bio-Rad Laboratories, Inc.), and inhibition of target labeling was assessed by densitometry using ImageJ software. The initial screen was performed using 50 μM of test compound.

T1 sequence (Q13501 whole entry): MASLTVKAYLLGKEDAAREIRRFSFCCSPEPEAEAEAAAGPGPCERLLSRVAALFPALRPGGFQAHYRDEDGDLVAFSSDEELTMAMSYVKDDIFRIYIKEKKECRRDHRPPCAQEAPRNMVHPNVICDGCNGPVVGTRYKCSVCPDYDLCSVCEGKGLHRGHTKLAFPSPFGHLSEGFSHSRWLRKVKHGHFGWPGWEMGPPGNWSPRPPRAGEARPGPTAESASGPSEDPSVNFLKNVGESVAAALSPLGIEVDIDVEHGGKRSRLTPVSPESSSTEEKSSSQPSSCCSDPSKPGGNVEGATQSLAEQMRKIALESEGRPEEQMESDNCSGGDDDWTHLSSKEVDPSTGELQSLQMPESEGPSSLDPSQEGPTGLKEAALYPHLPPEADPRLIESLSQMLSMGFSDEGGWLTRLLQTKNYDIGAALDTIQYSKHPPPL

SMILES	inhibition at 50 µM [%]	% inhibition
COc1ccc(CN(C(=O)CCl)c2nccs2)c(OC)c1 [Compound 1, 2-chloro-N-(2,4-dimethoxybenzyl)-N-(thiazol-2-yl)acetamide]	79	
C[C@H]1CNCCCN1C(=O)CCl [Compound 66, (S)-2-chloro-1-(2-methyl-1,4-diazepan-1-yl)ethanone]		not active
O=C(NCC1(O)CCCCN(C(=O)CCl)C1)OCc1ccccc1 (stereo not drawn) [Compound 30, Benzyl ((1-(2-chloroacetyl)-3-hydroxyazepan-3-yl)methyl)carbamate]	50	
O=C(CCl)N1CCCCC(F)(F)C1 [Compound 19, 2-chloro-1-(3,3-difluoroazepan-1-yl)ethanone]	83	
O=C(CCl)N(Cc1ccccc1)[C@H]1COC[C@@H]1O [Compound 10, N-benzyl-2-chloro-N-[(3S,4R)-4-hydroxytetrahydrofuran-3-yl]acetamide]	17	
O=C(CCl)N1CCCS(=O)(=O)CC1 [Compound 52, 2-chloro-1-(1,1-dioxido-1,4-thiazepan-4-yl)ethanone]	40	
O=C(CCl)N1CCCC(O)CC1 (stereo not drawn) [Compound 15, 2-chloro-1-(4-hydroxyazepan-1-yl)ethan-1-one]	29	
CC1CCCN(C(=O)CCl)CC1 (stereo not drawn) [Compound 21, 2-chloro-1-(4-methylazepan-1-yl)ethanone]	11	
O=C(CCl)N1CCc2nccn2CC1 [Compound 56, 2-chloro-1-(8,9-dihydro-5H-imidazo[1,2-d][1,4]diazepin-7(6H)-yl)ethanone]	50	
O=C(CCl)N1CCCC(F)CC1 (stereo not drawn) [Compound 20, 2-chloro-1-(4-fluoroazepan-1-yl)ethanone]	9	
O=C(CCl)N(Cc1ccccc1)C1CCCCC1 [Compound 2, N-benzyl-2-chloro-N-cyclohexylacetamide]	50	
CC(C)(C)OC(=O)N1CCN(C(=O)CCl)CC(O)C1 (stereo not drawn) [Compound 18, Tert-butyl 4-(2-chloroacetyl)-6-hydroxy-1,4-diazepane-1-carboxylate]	21	
CC(C)N(C(=O)CCl)C1CCCN(C(=O)OC(C)(C)C)CC1 (stereo not drawn) [Compound 8, Tert-butyl 4-(2-chloro-N-isopropylacetamido)azepane-1-carboxylate]	50	
CC1(F)CCCN(C(=O)CCl)CC1 (stereo not drawn) [Compound 36, 2-chloro-1-(4-fluoro-4-methylazepan-1-yl)ethanone]	34	
CC1CCN(C(=O)CCl)CCC1O (stereo not drawn) [Compound 45, 2-chloro-1-(4-hydroxy-5-methylazepan-1-yl)ethanone]		not active
CC(C)(C)OC(=O)N1CCN(C(=O)CCl)CC2(CCCC(=O)N2)C1 (stereo not drawn) [Compound 60, Tert-butyl 11-(2-chloroacetyl)-2-oxo-1,8,11-triazaspiro[5.6]dodecane-8-carboxylate]	21	
COC(=O)N1CCCN(C(=O)CCl)CC1 [Compound 17, Methyl 4-(2-chloroacetyl)-1,4-diazepane-1-carboxylate]	9	
O=C(CCl)N1CCCSCC1 [Compound 51, 2-chloro-1-(1,4-thiazepan-4-yl)ethanone]	33	
O=C(CCl)N1CCCC(O)(C(F)(F)F)CC1 (stereo not drawn) [Compound 33, 2-chloro-1-(4-hydroxy-4-(trifluoromethyl)azepan-1-yl)ethanone]	32	
O=C(CCl)N1CCC(F)C(O)(C(F)(F)F)CC1 (stereo not drawn) [Compound 24, 2-chloro-1-(5-fluoro-4-hydroxy-4-(trifluoromethyl)azepan-1-yl)ethanone]		not active
O=C(CCl)N1CCNCC(O)C1 (stereo not drawn) [Compound 67, 2-chloro-1-(6-hydroxy-1,4-diazepan-1-yl)ethanone]	35	
O=C1CCN(C(=O)CCl)CCC1F (stereo not drawn) [Compound 47, 1-(2-chloroacetyl)-5-fluoroazepan-4-one]	36	

Biological target: Protein SQSTM1 (p62) (Homo sapiens, UniProt Q13501)
Sequence (Q13501 whole entry): as above
Experiment: Dose response of Compound 1 and Compound 19 against SQSTM1 (TAMRA fluorescence)
Type: binding
Settings: pre-incubated at 2, 0.5, 0.125 and 0.03 μM, then reactive probe TAMRA; FIG. 1
Procedure: Protein SQSTM1 (p62) was pre-incubated with either Compound 1 or Compound 19 at concentrations of 2, 0.5, 0.125, and 0.03 μM, followed by addition of the reactive probe 5-carboxytetramethylrhodamine (TAMRA). Measurements were made using TAMRA fluorescence. Silver staining of the protein was used as a protein loading control. Decreasing fluorescence of TAMRA indicates binding of the test compound.

SMILES	binding to SQSTM1 (decreasing TAMRA fluorescence)
COc1ccc(CN(C(=O)CCl)c2nccs2)c(OC)c1 [Compound 1, 2-chloro-N-(2,4-dimethoxybenzyl)-N-(thiazol-2-yl)acetamide]	covalently bind to SQSTM1
O=C(CCl)N1CCCCC(F)(F)C1 [Compound 19, 2-chloro-1-(3,3-difluoroazepan-1-yl)ethanone]	covalently bind to SQSTM1

Source: US20220387411A1, “TARGETED AUTOPHAGY CONJUGATES AND METHODS” (Frontier Medicines Corporation, priority 2019, published 2022)
